Key:
[1] = molecular target: T1, Prostaglandin G/H synthase 1 (Ovis aries, UniProt P05979); experiment: Inhibition of ovine COX1 assessed as conversion of [14C]-arachidonic acid to [14C]-prostaglandins preincubated for 17 mins by thin-layer chromatography analysis
T1 sequence (P05979 whole entry): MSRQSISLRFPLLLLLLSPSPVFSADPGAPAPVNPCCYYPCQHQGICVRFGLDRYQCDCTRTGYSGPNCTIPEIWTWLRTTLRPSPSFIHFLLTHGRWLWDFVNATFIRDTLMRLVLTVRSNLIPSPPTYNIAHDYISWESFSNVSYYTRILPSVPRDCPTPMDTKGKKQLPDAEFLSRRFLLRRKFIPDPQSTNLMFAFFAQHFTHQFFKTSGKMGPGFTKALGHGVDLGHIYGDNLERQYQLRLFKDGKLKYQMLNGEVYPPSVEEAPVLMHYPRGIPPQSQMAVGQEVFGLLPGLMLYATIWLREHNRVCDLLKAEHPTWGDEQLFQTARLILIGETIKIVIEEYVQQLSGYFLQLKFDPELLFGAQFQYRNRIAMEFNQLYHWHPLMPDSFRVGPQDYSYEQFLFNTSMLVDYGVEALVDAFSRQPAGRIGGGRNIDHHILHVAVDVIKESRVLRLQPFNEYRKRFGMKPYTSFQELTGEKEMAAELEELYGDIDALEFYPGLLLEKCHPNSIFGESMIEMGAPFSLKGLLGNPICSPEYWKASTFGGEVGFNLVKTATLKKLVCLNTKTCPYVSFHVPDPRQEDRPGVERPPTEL

[2] = molecular target: T2, Prostaglandin G/H synthase 2 (Mus musculus, UniProt Q05769); experiment: Inhibition of mouse COX2 assessed as conversion of [14C]-arachidonic acid to [14C]-prostaglandins preincubated for 17 mins by thin-layer chromatography analysis
T2 sequence (Q05769 whole entry): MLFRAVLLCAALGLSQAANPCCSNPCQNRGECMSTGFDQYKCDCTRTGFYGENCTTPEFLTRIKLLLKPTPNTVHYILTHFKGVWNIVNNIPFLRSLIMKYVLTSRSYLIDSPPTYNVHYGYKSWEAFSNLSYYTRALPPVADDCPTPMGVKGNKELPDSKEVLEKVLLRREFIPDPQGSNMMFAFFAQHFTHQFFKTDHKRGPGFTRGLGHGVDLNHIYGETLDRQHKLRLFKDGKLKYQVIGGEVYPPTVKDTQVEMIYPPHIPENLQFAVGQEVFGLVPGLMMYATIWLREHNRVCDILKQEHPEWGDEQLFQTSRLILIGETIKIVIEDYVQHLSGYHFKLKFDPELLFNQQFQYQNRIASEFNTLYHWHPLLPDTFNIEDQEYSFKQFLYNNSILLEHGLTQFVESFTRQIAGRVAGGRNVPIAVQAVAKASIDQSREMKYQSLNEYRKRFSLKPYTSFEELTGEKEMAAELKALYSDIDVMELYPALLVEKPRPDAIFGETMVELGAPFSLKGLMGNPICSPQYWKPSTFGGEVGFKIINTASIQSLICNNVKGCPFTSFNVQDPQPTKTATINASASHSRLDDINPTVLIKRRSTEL

IC50 [1]: > 25 µM | IC50 [2]: > 25 µM
Structure (SMILES): COc1ccc2c(c1)c(CC(=O)OC13CC4CC(CC(C4)C1)C3)c(C)n2C(=O)c1ccc(Cl)cc1
